Paper doi:10.1101/2024.12.04.24318244v2 (medrxiv, 2024)
pKi: −log10 of the molar value. Where a name gives a salt, the structure may show the parent alone. Read-outs that look alike come from different tables or passages of the source.

Key:
Assay in all cases: radioligand competition binding
S2R = biological target: S2R
5-HT2B = 5-HT2B (Homo sapiens, UniProt P41595)
5-HT1A = biological target: T1, 5-HT1A (Homo sapiens, UniProt P08908)
T1 sequence (P08908 1-422): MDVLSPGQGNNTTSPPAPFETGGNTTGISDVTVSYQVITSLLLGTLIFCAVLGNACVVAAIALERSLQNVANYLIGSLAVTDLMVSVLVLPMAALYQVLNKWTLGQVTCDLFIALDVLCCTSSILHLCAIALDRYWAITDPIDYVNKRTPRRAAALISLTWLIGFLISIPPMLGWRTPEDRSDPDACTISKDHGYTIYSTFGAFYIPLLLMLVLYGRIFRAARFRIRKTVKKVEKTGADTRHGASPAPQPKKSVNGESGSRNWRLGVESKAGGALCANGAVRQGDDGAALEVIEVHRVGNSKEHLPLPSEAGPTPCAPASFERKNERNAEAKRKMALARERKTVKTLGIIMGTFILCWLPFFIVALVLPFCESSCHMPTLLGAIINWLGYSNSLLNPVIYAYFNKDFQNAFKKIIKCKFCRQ

Sequence of 5-HT2B (P41595 whole entry): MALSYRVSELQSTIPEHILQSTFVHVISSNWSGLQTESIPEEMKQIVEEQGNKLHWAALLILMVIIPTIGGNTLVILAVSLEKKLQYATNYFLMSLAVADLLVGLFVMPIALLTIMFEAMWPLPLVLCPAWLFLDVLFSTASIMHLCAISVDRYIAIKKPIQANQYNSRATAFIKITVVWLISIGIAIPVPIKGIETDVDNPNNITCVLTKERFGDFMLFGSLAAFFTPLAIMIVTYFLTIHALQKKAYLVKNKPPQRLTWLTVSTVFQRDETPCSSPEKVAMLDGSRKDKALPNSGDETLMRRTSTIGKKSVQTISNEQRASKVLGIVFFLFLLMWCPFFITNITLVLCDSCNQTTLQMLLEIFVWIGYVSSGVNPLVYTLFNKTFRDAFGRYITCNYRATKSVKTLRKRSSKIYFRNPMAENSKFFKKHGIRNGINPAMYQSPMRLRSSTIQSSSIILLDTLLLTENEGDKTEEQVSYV

| pKi (S2R; text b35 prints a range that differs from the table) | pKi (5-HT2B) | pKi (5-HT1A) | pKi (S2R) | pKi (5-HT1A; text b38 prints a wider range than the table) | SMILES |
| --- | --- | --- | --- | --- | --- |
| 7.44 | < 5.30 | < 5.30 | – | – | CC(C)n1c(=O)c(C(=O)NCCCN2CCCCC2)c(O)c2ccsc21 [PRX-3140, 6,7-Dihydro-4-hydroxy-7-isopropyl-6-oxo-N-(3-(piperidin-1-yl)propyl)thieno[2,3-b]pyridine-5-carboxamide potassium salt] |
| – | < 5.30 | – | < 5.70 | 7.96 to 8.30 | CC(=O)Nc1cccc(N2CCN(CCCCNS(=O)(=O)CC3CCCCC3)CC2)c1 [NP-18-2, N-{3-[4-(4-cyclohexylmethanesulfonylaminobutyl)-piperazin-1-yl]phenyl} acetamide hydrochloride] |
| – | 8.47 | – | 7.38 | – | N#Cc1cc(CN2CCC(Nc3ncnc4sc(Cl)cc34)CC2)ccc1F [NP-18-3, 5-((4-(6-chlorothieno[2,3-d]pyrimidin-4-ylamino)piperidine-1-yl)methyl)-2-fluorobenzonitrile monofumarate] |
